Experimental data from ChEMBL document CHEMBL1201862, “PubChem BioAssay data set” (2004).
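Tested at 5 concentrations; 48 h exposure; 96-well plates; endpoints linearly interpolated, else capped at highest concentration. Abbreviation: GI50, concentration required for 50% inhibition of growth.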 Activity calls are given as the source filed them. Cut-off read from the data, not from the text of the source: active = GI50 up to about 1.1 µM and inactive = higher.

Assays:
Assay in all cases: growth of human tumour cells (NCI), 48 h
MOLT-4 = test system: MOLT-4
SK-MEL-28 = test system: SK-MEL-28
HL-60 = test system: HL-60
ACHN = test system: ACHN
U-251 = test system: U-251
OVCAR-4 = test system: OVCAR-4
SW-620 = test system: SW-620
HOP-92 = test system: HOP-92
SNB-75 = test system: SNB-75
COLO 205 = test system: COLO 205
KM12 = test system: KM12
SNB-19 = test system: SNB-19
OVCAR-5 = test system: OVCAR-5
SN12C = test system: SN12C
NCI-H226 = test system: NCI-H226

Structure (SMILES)	GI50 (MOLT-4)	GI50 (SK-MEL-28)	GI50 (HL-60)	GI50 (ACHN)	GI50 (U-251)	GI50 (OVCAR-4)	GI50 (SW-620)	GI50 (HOP-92)	GI50 (SNB-75)	GI50 (COLO 205)	GI50 (KM12)	GI50 (SNB-19)	GI50 (OVCAR-5)	GI50 (SN12C)	GI50 (NCI-H226)
N#C/C(=C\c1ccc[nH]1)C(=O)c1ccccc1	> 100 µM (inactive)	> 100 µM (inactive)	> 100 µM (inactive)	> 100 µM (inactive)	> 100 µM (inactive)	> 100 µM (inactive)	> 100 µM (inactive)	70.8 µM (inactive)	35.8 µM (inactive)	> 100 µM (inactive)	> 100 µM (inactive)	> 100 µM (inactive)	> 100 µM (inactive)	> 100 µM (inactive)	> 100 µM (inactive)
CC12Oc3ccc4ccccc4c3CC1Cc1c(ccc3ccccc13)O2 (centres undefined)		> 100 µM (inactive)	> 100 µM (inactive)	> 100 µM (inactive)	50.6 µM (inactive)	26.5 µM (inactive)	> 100 µM (inactive)	0.124 µM (active)	7.08 µM (inactive)	> 100 µM (inactive)	> 100 µM (inactive)	45.5 µM (inactive)	> 100 µM (inactive)		23 µM (inactive)
Cc1ccccc1C1SCc2nc3ccccc3n21 (centres undefined)		23.6 µM (inactive)	1.92 µM (inactive)	> 100 µM (inactive)	> 100 µM (inactive)			2.43 µM (inactive)	> 100 µM (inactive)	> 100 µM (inactive)	> 100 µM (inactive)	> 100 µM (inactive)	3.38 µM (inactive)	> 100 µM (inactive)	60.3 µM (inactive)
CC(C)(C)OC(=O)N[C@H]1CC(O)c2ccccc2N(CC(=O)O)C1=O (some centres undefined)	> 100 µM (inactive)	> 100 µM (inactive)	> 100 µM (inactive)	> 100 µM (inactive)		> 100 µM (inactive)	> 100 µM (inactive)	> 100 µM (inactive)	> 100 µM (inactive)	> 100 µM (inactive)	> 100 µM (inactive)	> 100 µM (inactive)		> 100 µM (inactive)	> 100 µM (inactive)
S=C(N/N=C/c1ccccc1)NC1CC(c2ccccc2)Oc2ccccc21 (centres undefined)	> 10 µM (inactive)	70 µM (inactive)		> 10 µM (inactive)	33.4 µM (inactive)	16.9 µM (inactive)	> 100 µM (inactive)	2.17 µM (inactive)	7.16 µM (inactive)	> 100 µM (inactive)	> 100 µM (inactive)	36.5 µM (inactive)	> 100 µM (inactive)	> 100 µM (inactive)	> 100 µM (inactive)
Cc1cc2c(C)n(Cc3ccc(Cl)cc3Cl)nc2c(C(=O)O)c1C	> 100 µM (inactive)	> 100 µM (inactive)	> 100 µM (inactive)	> 100 µM (inactive)	> 100 µM (inactive)		> 100 µM (inactive)	42.9 µM (inactive)	> 100 µM (inactive)	> 100 µM (inactive)		> 100 µM (inactive)	> 100 µM (inactive)	63.4 µM (inactive)	> 100 µM (inactive)
C1=CC2SSSC2C1 (centres undefined)	> 100 µM (inactive)	> 100 µM (inactive)	> 100 µM (inactive)	> 100 µM (inactive)	> 100 µM (inactive)	> 100 µM (inactive)	> 100 µM (inactive)	> 100 µM (inactive)	> 100 µM (inactive)	> 100 µM (inactive)	> 100 µM (inactive)	> 100 µM (inactive)	> 100 µM (inactive)	> 100 µM (inactive)	> 100 µM (inactive)
CC(=O)NC(CCCNC(=O)N(CCCl)N=O)C(=O)NCc1ccccc1 (centres undefined)	38.5 µM (inactive)	> 100 µM (inactive)	24 µM (inactive)	38.9 µM (inactive)	27.6 µM (inactive)	> 100 µM (inactive)	> 100 µM (inactive)	> 100 µM (inactive)	9.71 µM (inactive)	> 100 µM (inactive)	> 100 µM (inactive)	22.6 µM (inactive)		91.4 µM (inactive)	> 100 µM (inactive)
